Patent US20020022619A1, “Tricyclic fused pyridine and pyrimidine derivatives as CRF antagonists” (priority 2000, published 2002)

Tests used:
[1] = test system: “anxiogenic” effects of CRF; conditions: cited from earlier work; for effect on the “anxiogenic” effects / actions of CRF in the conflict test: rats, given with CRF

Row | melting point | Structure (SMILES) | effect on the “anxiogenic” effects / actions of CRF in the conflict test [1] | behavioral activity alone in the operant conflict test ([1]; compound alone, without CRF)
1 | 144.5 to 146 °C | CCN1CCCn2c(=O)n(-c3ccc(C(C)C)cc3Br)c3nc(C)nc1c32 [Example 1, 2-(2-Bromo-4-isopropyl-phenyl)-6-ethyl-4-methyl-6,7,8,9-tetrahydro-2H-2,3,5,6,9a-pentaaza-benzo[cd]azulen-1-one] |  | 
2 |  | CNC(=O)c1cc2c(cn1)[nH]c1ccccc12 [FG7142] | enhanced the actions of CRF | 
3 |  | CCOC(=O)c1ncn2c1CN(C)C(=O)c1cc(F)ccc1-2 [Ro15-1788] | reversed the effects of CRF in a dose-dependent manner | without behavioral activity alone
